Assay results as given in patent US10675286B2, “Heterocyclic compounds and uses thereof” (Infinity Pharmaceuticals, Inc., priority 2014, dated 2020).
“Also recorded” adds a separate entry of the source.

Tests used:
TMD8 cell line = assay: Combination isobologram in TMD8 cell line; assay type: cell-based; conditions: combination of Compound AA and Compound BB
[1] = test system: M1 macrophage differentiation; assay: M1 macrophage differentiation; assay type: cell-based; conditions: data not shown
Method: A similar experiment was performed on M1 differentiation.

Lewis Lung Carcinoma = Lewis Lung Carcinoma (LLC) tumor brei model; assay type: in vivo, mouse
Method: LLC Lewis Lung carcinoma model: LLC cells are derived from a spontaneous lung tumor from a C57BL/6 mouse and can be studied as a s.c. tumor when injected in the flank, or as an orthotopic tumor if injected i.v., following which it localizes to the lung.
Compound BB was tested in the Lewis Lung Carcinoma model, which is known in the art and briefly described hereinabove.
LLC tumor brei model was prepared and injected subcutaneously into a mouse in the hind flank region. The tumor brei was prepared as follows. LL2-Luc tumor cells were grown in culture in DMEM+10% FBS. Cells were implanted @ 1×10^6 cells/100 uL SC in the flank of C57 Albino mice (male) When tumors reached 1000 mm3, tumors were harvested. Only the white, living tissue was harvested. Any material containing visable blood or necrotic area was isolated away from the tumor tissue. Tumor tissue was placed in a Dounce tissue homoginized with 5 mLs of warm DMEM (no FBS). About 1-2 grams of tumor tissue was collected, homogenized, pooled into 50 mL falcon tube, and cells were counted. Cells were spinned @ 12,000 RPM, and FBS was pooled off. Cells were resuspended to equal 1×10^7 cells/mL with sterile PBS. 100 uL of cells/mouse SC at the hind flank region were implanted. This process was repeated one more time before conducting brei tumor efficacy study.
Flow cytometry was performed to obtain a more extensive cellular subset analysis. In particular, the study examined T cell vs. Myeloid cells, Myeloid cell subsets, Regulatory vs. effector T cells, and Tumor markers vs. WBC (e.g., PD-L1 expression on tumor).
Different populations of tumor-associated myeloid cells can be identified by flow cytometry, e.g., monocytic immature myeloid cells (iMC), Granulocytic iMCs/Neutrophils, Tumor Associated Macrophages (TAMs), and Granulocytic MDSCs. The different populations, and panels for detecting MDSCs, are described in Cancer Discovery 2011; 1:54-67. Tumors may vary in their myeloid cell composition.

CT26 colon carcinoma = assay: CT26 allograft colon cancer model; assay type: in vivo, mouse
Description: CT26 is an N-nitroso-N-methylurethane-(NNMU) induced, undifferentiated mouse colon carcinoma cell line. It is cloned to generate the cell line designated CT26.WT (ATCC CRL-2638). The syngeneic CT26 colon cancer model is established by subcutaneous implantation of CT26 cells into BALB/c mice. This model has been extensively used to study the anti-tumor activity of immunotherapies (Yu et al., Clinical Cancer Research, 2010; Daraiswamy et al., Cancer Research, 2013). […] In some embodiments, a compound provided herein can be administered alone or in combination with an anti-PD-L1.
CT26 is an N-nitroso-N-methylurethane-(NNMU) induced, undifferentiated colon carcinoma cell line. It was cloned to generate the cell line designated CT26.WT (ATCC catalog number CRL-2638). 5-6 week old female, Balb/c mice (Jackson Labs) were implanted subcutaneously with 5×10^5 CT26 cells in 200 μl PBS. CT26 cells were cultured in DMEM supplemented with 10% FBS. Dosing commenced when tumors reached an average volume of […]. Administration of the compounds was performed according to the following Table:
Isotype control (Ultra-LEAF purified rat IgG2b, k isotype control, clone RTK4530, Lot B180477, Biolegend, Cat #70640)
Anti-PD-L1 antibody (Ultra-LEAF purified anti-mouse CD274-B7H1, PD-L1-, clone 10F9G2, Lot B178331, Biolegend, Cat #124318) […]
Body weights and tumor volumes were measured three times per week.

P-GP (P-glycoprotein 1) = P-GP (P-glycoprotein 1) (Homo sapiens (Human), UniProt P08183); assay: P-gp inhibition; assay type: in vitro ADME
GL261-Luc = GL261-Luc murine glioblastoma subcutaneous model; assay type: in vivo, mouse; conditions: GL-261 syngeneic glioma, 15 mg/kg QD, PO
Description: In some cases, the GL261 glioblastoma model is used. This is a syngeneic glioblastoma multiform model run subcutaneously or orthotopically, and is described in more detail in the examples provided herein. In some embodiments, the model has previously been treated with radiation therapy but there is a recurrence of the cancer. Compounds provided herein can be administered to models with a recurrence or relapse of cancer after prior treatment.

LLC tumor brei = LLC tumor brei model, Compound BB with or without cyclophosphamide; assay type: in vivo, mouse
Method: In this experiment, treatment began when tumors reached approx. 150 mm^3—around day 12. Caliper and xenogen images were monitored. Treatment groups n=13-15/group. […] Samples for FACs analysis were collected on day 23 post implant. Using FACS, cells were assayed for the level of CD11b and Gr-1.

[2] = test system: T cell proliferation suppressed by CT26 tumor cells; assay: Ex vivo T cell proliferation (CFSE) with cells of CT26 tumors; assay type: cell-based, mouse; conditions: vs tumor cells from vehicle treated mice
Method: CT26 was an N-nitroso-N-methylurethane-(NNMU)induced, undifferentiated colon carcinoma cell line. It was cloned to generate the cell line designated CT26.WT (ATCC CRL-2638).
The duration of the study was 1 week under treatment. 5-6 week old female, Balb/c mice (Jackson Labs) implanted subcutaneously with 5×10^5CT26 cells in 100 μl PBS. CT26 cells were cultured in RPMI supplemented with 10% FBS. Dosing commenced when tumors reached an average volume of 500-600 mm^3.
For group 3 (αPD-L1), the mice were dosed once, IP, 200 ug (200 uL from 1 mg/ml stock).
Mice were monitored daily for adverse clinical effects. Body weights and tumor luminescent were measured two times per week. At the end of the study, tumors were harvested and cut into 3 parts; one piece for CTL killing assay, one piece for CSFE proliferation assay and one piece (split into two) for OCT/FFPE.
Spleens from 3 vehicle treated tumor bearing mice were physically dissociated in T cell media and passed through a 70 micron filter. After red cell lysis, the cells were pooled, brought up in PBS and stained with CFSE (invitrogen). After washing, these cells were brought up in 20 ml T cell media. Half the cells received Dynal mouse activator beads (CD3/CD28 crosslinking at a 1:1 concentration). CD3/CD28 beads induce proliferation in splenocytes from tumor bearing mouse (data not shown). […]

P-GP (P-glycoprotein 1), sequence (P08183 whole entry, species assumed): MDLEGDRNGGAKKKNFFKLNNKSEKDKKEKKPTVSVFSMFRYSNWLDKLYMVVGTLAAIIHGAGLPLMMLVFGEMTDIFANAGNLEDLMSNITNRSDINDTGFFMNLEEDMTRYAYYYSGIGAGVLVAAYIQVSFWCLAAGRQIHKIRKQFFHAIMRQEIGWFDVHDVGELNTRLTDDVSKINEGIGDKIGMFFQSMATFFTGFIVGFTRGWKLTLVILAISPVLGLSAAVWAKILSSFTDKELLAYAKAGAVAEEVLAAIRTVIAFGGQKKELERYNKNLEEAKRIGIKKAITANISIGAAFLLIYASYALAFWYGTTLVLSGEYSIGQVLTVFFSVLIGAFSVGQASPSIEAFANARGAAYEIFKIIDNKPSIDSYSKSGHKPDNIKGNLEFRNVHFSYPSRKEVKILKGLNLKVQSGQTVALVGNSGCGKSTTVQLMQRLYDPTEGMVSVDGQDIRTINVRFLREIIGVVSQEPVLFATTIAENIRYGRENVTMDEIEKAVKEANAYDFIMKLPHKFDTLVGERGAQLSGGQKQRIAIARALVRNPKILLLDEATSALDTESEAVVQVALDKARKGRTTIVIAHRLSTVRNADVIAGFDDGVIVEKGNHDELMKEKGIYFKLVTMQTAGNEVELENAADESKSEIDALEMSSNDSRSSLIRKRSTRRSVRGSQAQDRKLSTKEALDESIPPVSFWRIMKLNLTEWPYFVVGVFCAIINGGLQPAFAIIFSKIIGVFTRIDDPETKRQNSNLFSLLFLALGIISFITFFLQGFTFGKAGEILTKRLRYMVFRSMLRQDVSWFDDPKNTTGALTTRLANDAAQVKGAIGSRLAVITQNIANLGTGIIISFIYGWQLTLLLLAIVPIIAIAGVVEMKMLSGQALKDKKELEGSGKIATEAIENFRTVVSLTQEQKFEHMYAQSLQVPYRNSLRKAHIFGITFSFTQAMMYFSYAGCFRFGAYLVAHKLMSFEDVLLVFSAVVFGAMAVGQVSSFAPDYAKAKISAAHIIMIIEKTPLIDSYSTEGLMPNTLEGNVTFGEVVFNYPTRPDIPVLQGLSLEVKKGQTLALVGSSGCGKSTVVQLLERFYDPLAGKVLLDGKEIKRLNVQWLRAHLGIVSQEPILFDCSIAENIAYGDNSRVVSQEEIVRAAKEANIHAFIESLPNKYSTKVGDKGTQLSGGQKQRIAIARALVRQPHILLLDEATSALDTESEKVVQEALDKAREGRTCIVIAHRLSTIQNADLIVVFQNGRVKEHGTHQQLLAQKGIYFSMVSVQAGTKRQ

In the case of `C[C@H](NC(=O)c1c(N)nn2cccnc12)c1cc2cccc(C#Cc3cnn(C)c3)c2c(=O)n1-c1ccccc1` [Compound BB], the “effect of the combination (isobologram)” value (TMD8 cell line) was “synergistic effect”, the M1 macrophage differentiation [1] was “did not have an observable effect” and the “Number of infiltrating TAMs (flow cytometry, FIG. 38A)” value (Lewis Lung Carcinoma) was “the number of infiltrating TAMs was decreased”. The “Tumor growth (FIGS. 25A and 25B)” value (Lewis Lung Carcinoma; single agent) was “demonstrated single agent activity”, the “CD206 staining (M2 macrophages, FIG. 39)” value (Lewis Lung Carcinoma; vs control) was “CD206 staining was reduced” and the “MDSC expansion after cyclophosphamide treatment (FIG. 28)” value (CT26 colon carcinoma; CT26 model, 5-9 day time frame) was “decreased”. For the same compound, the “Monocytic iMCs (flow cytometry, FIG. 38B)” value (CT26 colon carcinoma; CT26 subcutaneous tumors) was “monocytic iMCs were decreased”, the “P-GP (P-glycoprotein 1) inhibition” value (P-GP (P-glycoprotein 1)) was “appears to be an inhibitor of P-GP” and the “Total flux (FIG. 47B)” value (GL261-Luc) was “reduced the total flux”. For the same compound, the “Tumor volume (FIG. 47A)” value (GL261-Luc) was “reduced tumor volume”, the “Tumor growth (FIG. 48)” value (LLC tumor brei; Compound BB 15 mg/kg QD PO, cyclophosphamide 50 mg/kg EOD IP) was “reduced tumor growth by about the same amount” and the “CD206 population in tumor (FACS, FIG. 52)” value (LLC tumor brei; Compound BB alone or with cyclophosphamide) was “decrease in the CD206 population”. The “Inhibition of spleen T cell proliferation by tumor cells of treated mice (FIGS. 55, 56)” value [2] was “less inhibitory of spleen T cell proliferation; also recorded: can release the suppression”.
